Assays:
Assay type in all cases: cell-based
[1] = tested on: Bovine Pulmonary Artery Endothelium; assay: Transendothelial electrical resistance (TER) across bovine pulmonary artery endothelium; settings: VEGF 100 ng/ml, Sph 1-P 1 μM, HGF 20 ng/ml
Procedure: Bovine pulmonary artery endothelial cells were purchased from the American Type Culture Collection (ATCC®, Rockville, Md.) and utilized at passage 19-24. Cells were maintained in Medium 199 (Life Technologies, Rockville, Md.) supplemented with 20% (v/v) colostrum-free bovine serum (CFBS) (Irvine Scientific, Santa Ana, Calif.), 15 μg/ml endothelial cell growth supplement (Upstate Biotechnology, Lake Placid, N.Y.), 1% antibiotic and antimycotic, and 0.1 mM non-essential amino acids (Life Technologies). Human pulmonary artery endothelial cells were purchased from Clonetics (Walkersville, Md.), cultured in EBM-2 complete medium (Clonetics) and utilized at passage 5-10. Human alveolar epithelial cells (A549) were purchased from ATCC® and cultured in the same medium as the bovine endothelial cells, except that the endothelial cell growth supplement was omitted. All cells were maintained at 37° C. in a humidified atmosphere of 5% CO2 and 95% air.
Electrical resistance of EC monolayers was measured using electrical cell impedance sensor system (Applied Biophysics Inc., Troy, N.Y.) as described in Garcia, J. G. N. et al. (2000) J. Appl. Physiol. 89:2333-2343. Cells grown on gold microelectrodes (10^−3 cm^2) in polycarbonate wells act as insulating particles, and the resistance across the monolayers (transendothelial electrical resistance, or TER) is measured in real time. As cells adhere on the microelectrode and intercellular cell contacts are formed or in response to agents which increase junctional integrity, the TER increases (Garcia, J. G. N. et al. (2001) J. Clin. Invest. 108:689-711). In contrast, cell retraction, rounding, or loss of adhesion is reflected by decreases in TER (Garcia, J. G. N. et al. (2000) J. Appl. Physiol. 89:2333-2343). These measurements provide a highly sensitive biophysical assay that indicates the state of cell shape, focal adhesion, and endothelial barrier function (Giaever, I. and Keese, C. R. (1993) Nature 366:591-592; Tiruppathi, C. et al. (1992) Proc. Natl. Acad. Sci. USA 89:7919-7923). All electrical resistance data are presented as normalized values. Briefly, current was applied across the electrodes by a 4000 Hz AC voltage source with an amplitude of 1 V in series with a 1 MΩ resistance to approximate a constant current source (−1 μA). The small gold electrode and the larger counter electrode (1 cm^2) were connected to a phase-sensitive lock-in amplifier (5301A; EG&G Instruments Corp, Princeton, N.J.) with a built in differential preamplifier (5316A; EG&G Instruments Corp.). The in-phase and out-of-phase voltages between the electrodes were monitored in real time with the lock-in amplifier and converted to scalar measurements of transendothelial impedance, of which resistance was the primary focus. […] For some experiments, total TER was vectorially resolved into components reflecting resistance to current flow beneath the cell layer (α) and resistance to current flow between adjacent cells (Rb) as described in Garcia et al. (2000) supra utilizing the method of Giaiver and Keese which models the endothelial monolayer mathematically (Giaever, I. and Keese, C. R. (1993) Nature 366:591-592). Thus, changes in α reflect alterations in the net state of cell-matrix adhesion, whereas changes in Rb reflect alterations in the integrity of cell-cell adhesion. TER values from each microelectrode were pooled at discrete time points and plotted versus time as the mean±standard error of the mean (Garcia et al. (2000) supra).

[2] = tested on: human alveolar epithelial cells (A549); assay: Electrical resistance of A549 alveolar epithelial cells on gold microelectrodes; settings: HGF 100 ng/mL; sphingosine 1-phosphate 1 μM
Procedure: FIGS. 1A-1D depict HGF-mediated increases in human transendothelial electrical resistance (TER). FIG. 1A: Human pulmonary artery endothelial cells were grown to confluence on gelatinized gold microelectrodes. Two hours prior to TER measurement, growth medium was replaced with serum-free M199. Serial-diluted HGF was added to cells at indicated concentrations and TER monitored for 2.5 hr. […] The result shown is a representative TER tracing of three independent experiments. FIG. 1B: Similar to FIG. 1A, human alveolar epithelial cells (A549) were grown on gold microelectrodes and challenged with vehicle, HGF, (100 ng/mL) or sphingosine 1-phosphate (1 μM). […]
Electrical resistance of EC monolayers was measured using electrical cell impedance sensor system (Applied Biophysics Inc., Troy, N.Y.) as described in Garcia, J. G. N. et al. (2000) J. Appl. […] Cells grown on gold microelectrodes (10^−3 cm^2) in polycarbonate wells act as insulating particles, and the resistance across the monolayers (transendothelial electrical resistance, or TER) is measured in real time. […] The in-phase and out-of-phase voltages between the electrodes were monitored in real time with the lock-in amplifier and converted to scalar measurements of transendothelial impedance, of which resistance was the primary focus. […]

[3] = tested on: Rac GTPase; assay: Rac GTPase activity, p21 Rac-binding domain assay; settings: HGF 10 ng/mL or Sph-1-P 1 μM for 1 or 5 min
Procedure: Endothelial cells grown in 100 mm dishes were incubated with agonists in serum-free M199. Cells were lysed in 500 μl Mg^2+ lysis buffer (Upstate Biotechnology, Lake Placid, N.Y.) and homogenized by pipetting. After a brief centrifugation to remove the cell debris, 300 μl of supernatant was incubated with the agarose-conjugated p21-binding domain (PBD) of human PAK-1 (10 μg, 30 min, Upstate Biotechnology). The agarose beads were washed with 1 ml of lysis buffer 5 times and re-suspended in 30 μl of 2×SDS buffer. After 10 min centrifugation at 14,000 g, 15 μl of supernatant from each sample was subjected to electrophoresis in 15% PAGE. […] For total Rac protein measurement, 5 μl of the original cell lysates were used for electrophoresis and western analysis. […] Pulmonary artery endothelial cells were incubated with HGF (10 ng/mL) or Sph-1-P (1 μM) for 1 or 5 min. Cells were lysed, supernatants collected, and activated GTP-bound Rac was precipitated by agarose-conjugated human PAK-1 p21-binding domain and subsequently immunoblotted by anti-Rac mAb. Total Rac protein was detected using cell lysates.

[4] = vs vehicle control, ±SEM, thrombin 100 μM

Compound: CCCCCCCCCCCCC/C=C/[C@@H](O)[C@@H](N)COP(=O)(O)O [Sph 1-P, sphingosine 1-phosphate, reference compound]
- TER response in words ([1]; thrombin, 10-60 min): brisk and sustained increase in TER
- changes in TER 30 min [1, 4]: +50 ± 6%
- changes in TER 60 min [1, 4]: +35 ± 4%
- changes in TER 10 min ([1]; vs vehicle control, ±SEM, thrombin 100 μM, (+) increased, (−) decreased): +50 ± 5%
- effect on electrical resistance of epithelial cells [2]: did enhance epithelial cell integrity
- Rac activity [3]: rapidly and transiently increases Rac activity
